Assay results published in ChEMBL document CHEMBL5126669, “Discovery of 5,7-Dihydro-6H-pyrrolo[2,3-d]pyrimidin-6-ones as Highly Selective CDK2 Inhibitors” (ACS Med Chem Lett, 2022).
Each block holds one compound with its values, some of them ahead of it.

What was measured:
[1] = target: Cyclin-dependent kinase 2/cyclin E1 (Homo sapiens, UniProt P24941); test: Inhibition of recombinant human N-terminal GST-tagged full-length CDK2/Flag-tagged cyclinE1 expressed in baculovirus expression system using eIF4E-binding protein-1 peptide as substrate incubated for 1 hr in presence of ATP by HTRF assay
Homo sapiens [2] = species: Homo sapiens; test: Selectivity ratio of IC50 for inhibition of CDK4/cyclin D1 (unknown origin) to IC50 for inhibition recombinant human N-terminal GST-tagged full-length CDK2/Flag-tagged cyclinE1 expressed in baculovirus expression system
Homo sapiens [3] = species: Homo sapiens; test: Selectivity ratio of IC50 for inhibition of CDK6/cyclin D1 (unknown origin) to IC50 for inhibition recombinant human N-terminal GST-tagged full-length CDK2/Flag-tagged cyclinE1 expressed in baculovirus expression system
[4] = target: T1, Cyclin-dependent kinase 2 (Homo sapiens, UniProt P24941); test: Inhibition of CDK2 in human COV318 cells incubated for overnight in presence of human whole blood by HTRF assay; format: cell-based
[5] = Intrinsic clearance in human liver microsomes at 1 uM measured upto 30 mins by LC/MS analysis; format: ADME, Microsome; conditions: read-out: CLH (converted)
[6] = Cmax in Sprague-Dawley rat at 3 mg/kg, po measured upto 24 hrs by LC-MS/MS analysis; format: ADME, organism-based; design: dose 3 mg/kg, time < 24 hrs, route po; conditions: in vivo
[7] = Cmax in Cynomolgus monkey at 2 mg/kg, po measured upto 24 hrs by LC-MS/MS analysis; format: ADME, organism-based, Macaca fascicularis; design: dose 2 mg/kg, time < 24 hrs, route po; conditions: in vivo
[8] = AUC in Sprague-Dawley rat at 3 mg/kg, po measured upto 24 hrs by LC-MS/MS analysis; format: ADME, organism-based; design: dose 3 mg/kg, time < 24 hrs, route po; conditions: in vivo
[9] = AUC in Cynomolgus monkey at 2 mg/kg, po measured upto 24 hrs by LC-MS/MS analysis; format: ADME, organism-based, Macaca fascicularis; design: dose 2 mg/kg, time < 24 hrs, route po; conditions: in vivo
[10] = Oral bioavailability in Sprague-Dawley rat at 3 mg/kg measured upto 24 hrs by LC-MS/MS analysis; format: ADME, organism-based; conditions: in vivo
[11] = Oral bioavailability in Cynomolgus monkey at 2 mg/kg measured upto 24 hrs by LC-MS/MS analysis; format: ADME, organism-based, Macaca fascicularis; conditions: in vivo
[12] = Hepatic blood flow in Sprague-Dawley rat at 0.5 mg/kg, iv measured upto 24 hrs by LC-MS/MS analysis; format: ADME, organism-based; conditions: in vivo
[13] = Hepatic blood flow in Cynomolgus monkey at 0.3 mg/kg, iv measured upto 24 hrs by LC-MS/MS analysis; format: ADME, organism-based, Macaca fascicularis; conditions: in vivo
[14] = Volume of distribution at steady state in Sprague-Dawley rat at 0.5 mg/kg, iv measured upto 24 hrs by LC-MS/MS analysis; format: ADME, organism-based; conditions: Sprague-Dawley, in vivo, read-out: Vdss
[15] = Volume of distribution at steady state in Cynomolgus monkey at 0.3 mg/kg, iv measured upto 24 hrs by LC-MS/MS analysis; format: ADME, organism-based, Macaca fascicularis; conditions: in vivo, read-out: Vdss
Cytochrome P450 3A4 = Cytochrome P450 3A4 (Homo sapiens, UniProt P08684); test: Inhibition of CYP3A4 (unknown origin) at >25 uM; format: ADME
Sequence of Cytochrome P450 3A4 (P08684 whole entry): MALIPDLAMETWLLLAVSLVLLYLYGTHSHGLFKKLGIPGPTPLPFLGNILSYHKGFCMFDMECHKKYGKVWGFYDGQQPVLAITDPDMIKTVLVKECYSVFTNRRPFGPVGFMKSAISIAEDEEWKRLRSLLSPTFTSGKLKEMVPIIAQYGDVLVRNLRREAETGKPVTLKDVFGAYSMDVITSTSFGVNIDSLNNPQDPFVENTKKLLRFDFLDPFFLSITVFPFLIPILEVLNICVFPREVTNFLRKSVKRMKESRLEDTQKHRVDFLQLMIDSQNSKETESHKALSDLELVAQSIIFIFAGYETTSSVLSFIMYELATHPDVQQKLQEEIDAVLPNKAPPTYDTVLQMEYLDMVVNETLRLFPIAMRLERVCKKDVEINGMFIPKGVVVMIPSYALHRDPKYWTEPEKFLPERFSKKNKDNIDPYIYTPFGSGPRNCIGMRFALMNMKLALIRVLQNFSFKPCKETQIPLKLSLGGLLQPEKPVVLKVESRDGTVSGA

Homo sapiens [16] = species: Homo sapiens; test: Selectivity ratio of IC50 for inhibition of CDK4 (unknown origin) to IC50 for inhibition recombinant human N-terminal GST-tagged full-length CDK2/Flag-tagged cyclinE1 expressed in baculovirus expression system
Homo sapiens [17] = species: Homo sapiens; test: Selectivity ratio of IC50 for inhibition of CDK1 (unknown origin) to IC50 for inhibition recombinant human N-terminal GST-tagged full-length CDK2/Flag-tagged cyclinE1 expressed in baculovirus expression system
Homo sapiens [18] = species: Homo sapiens; test: Selectivity ratio of IC50 for inhibition of CDK7 (unknown origin) to IC50 for inhibition recombinant human N-terminal GST-tagged full-length CDK2/Flag-tagged cyclinE1 expressed in baculovirus expression system
Homo sapiens [19] = species: Homo sapiens; test: Selectivity ratio of IC50 for inhibition of CDK9 (unknown origin) to IC50 for inhibition recombinant human N-terminal GST-tagged full-length CDK2/Flag-tagged cyclinE1 expressed in baculovirus expression system
Homo sapiens [20] = species: Homo sapiens; test: Selectivity ratio of IC50 for inhibition of CDK6 (unknown origin) to IC50 for inhibition recombinant human N-terminal GST-tagged full-length CDK2/Flag-tagged cyclinE1 expressed in baculovirus expression system
hERG (KCNH2) = hERG (KCNH2) (Homo sapiens, UniProt Q12809); test: Displacement of [3H]Dofetilide from human ERG at 10 uM incubated for 24 hrs by filter binding assay relative to control; format: toxicity; conditions: probe [3H]dofetilide
Sequence of hERG (KCNH2) (Q12809 whole entry): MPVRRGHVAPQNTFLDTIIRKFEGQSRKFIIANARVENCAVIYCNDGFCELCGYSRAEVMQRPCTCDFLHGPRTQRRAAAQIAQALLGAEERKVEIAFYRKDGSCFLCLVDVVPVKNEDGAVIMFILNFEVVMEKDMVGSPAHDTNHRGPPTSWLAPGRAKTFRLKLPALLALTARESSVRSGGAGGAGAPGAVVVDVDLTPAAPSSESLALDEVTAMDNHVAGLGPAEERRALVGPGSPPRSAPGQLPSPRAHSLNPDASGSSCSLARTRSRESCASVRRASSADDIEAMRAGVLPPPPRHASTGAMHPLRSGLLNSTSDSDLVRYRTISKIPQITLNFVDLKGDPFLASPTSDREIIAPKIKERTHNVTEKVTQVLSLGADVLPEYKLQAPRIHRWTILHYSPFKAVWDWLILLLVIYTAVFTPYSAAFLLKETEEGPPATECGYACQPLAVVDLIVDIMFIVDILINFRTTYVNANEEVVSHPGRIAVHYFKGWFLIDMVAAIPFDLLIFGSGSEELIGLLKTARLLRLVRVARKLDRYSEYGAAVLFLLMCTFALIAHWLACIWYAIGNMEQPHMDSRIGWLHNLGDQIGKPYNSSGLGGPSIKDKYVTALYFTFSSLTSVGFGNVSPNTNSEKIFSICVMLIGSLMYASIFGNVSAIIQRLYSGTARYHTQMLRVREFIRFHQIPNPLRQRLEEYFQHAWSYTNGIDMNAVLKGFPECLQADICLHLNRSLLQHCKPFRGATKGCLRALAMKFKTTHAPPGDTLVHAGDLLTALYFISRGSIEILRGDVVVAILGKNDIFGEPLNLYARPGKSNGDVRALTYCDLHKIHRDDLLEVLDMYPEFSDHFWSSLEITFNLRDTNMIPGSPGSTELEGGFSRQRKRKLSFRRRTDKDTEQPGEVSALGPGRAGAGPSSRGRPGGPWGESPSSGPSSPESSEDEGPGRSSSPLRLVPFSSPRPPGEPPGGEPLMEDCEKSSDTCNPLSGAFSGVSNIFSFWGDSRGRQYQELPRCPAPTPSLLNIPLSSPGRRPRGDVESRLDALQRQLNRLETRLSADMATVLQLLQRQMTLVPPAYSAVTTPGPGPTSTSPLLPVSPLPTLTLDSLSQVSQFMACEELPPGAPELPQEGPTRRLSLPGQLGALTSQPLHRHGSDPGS

Cytochrome P450 1A2 = target: T2, Cytochrome P450 1A2 (Homo sapiens, UniProt P05177); test: Inhibition of CYP1A2 (unknown origin) at >25 uM; format: ADME
T2 sequence (P05177 whole entry): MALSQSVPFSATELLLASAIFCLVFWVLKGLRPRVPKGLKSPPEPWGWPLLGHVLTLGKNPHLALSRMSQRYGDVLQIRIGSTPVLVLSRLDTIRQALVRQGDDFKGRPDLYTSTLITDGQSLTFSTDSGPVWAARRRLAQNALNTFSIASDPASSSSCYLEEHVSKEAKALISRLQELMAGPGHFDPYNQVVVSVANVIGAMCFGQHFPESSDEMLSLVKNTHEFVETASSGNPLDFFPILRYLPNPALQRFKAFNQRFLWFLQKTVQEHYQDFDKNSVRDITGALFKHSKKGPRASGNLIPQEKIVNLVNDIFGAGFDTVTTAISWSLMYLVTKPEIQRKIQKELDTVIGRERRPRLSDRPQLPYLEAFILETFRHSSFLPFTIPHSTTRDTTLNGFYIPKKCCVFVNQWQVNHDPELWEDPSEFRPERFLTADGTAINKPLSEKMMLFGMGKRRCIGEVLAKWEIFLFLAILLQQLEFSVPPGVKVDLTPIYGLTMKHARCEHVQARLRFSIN

Cytochrome P450 2C8 = target: T3, Cytochrome P450 2C8 (Homo sapiens, UniProt P10632); test: Inhibition of CYP2C8 (unknown origin) at >25 uM; format: ADME
T3 sequence (P10632 whole entry): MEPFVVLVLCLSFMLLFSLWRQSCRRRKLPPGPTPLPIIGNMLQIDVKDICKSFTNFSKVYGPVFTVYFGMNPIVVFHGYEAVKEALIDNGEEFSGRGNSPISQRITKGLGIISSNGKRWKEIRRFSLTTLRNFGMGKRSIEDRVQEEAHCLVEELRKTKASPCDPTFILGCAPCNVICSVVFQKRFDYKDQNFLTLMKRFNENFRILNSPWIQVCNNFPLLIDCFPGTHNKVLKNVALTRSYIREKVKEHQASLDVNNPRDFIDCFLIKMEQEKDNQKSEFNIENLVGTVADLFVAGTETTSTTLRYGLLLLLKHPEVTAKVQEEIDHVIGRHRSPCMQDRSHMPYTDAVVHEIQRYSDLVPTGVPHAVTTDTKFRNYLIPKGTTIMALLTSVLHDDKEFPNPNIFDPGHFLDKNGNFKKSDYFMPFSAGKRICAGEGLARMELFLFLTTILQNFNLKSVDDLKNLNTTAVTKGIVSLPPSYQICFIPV

Cytochrome P450 2C19 = Cytochrome P450 2C19 (Homo sapiens, UniProt P33261); test: Inhibition of CYP2C19 (unknown origin) at >25 uM; format: ADME
Sequence of Cytochrome P450 2C19 (P33261 whole entry): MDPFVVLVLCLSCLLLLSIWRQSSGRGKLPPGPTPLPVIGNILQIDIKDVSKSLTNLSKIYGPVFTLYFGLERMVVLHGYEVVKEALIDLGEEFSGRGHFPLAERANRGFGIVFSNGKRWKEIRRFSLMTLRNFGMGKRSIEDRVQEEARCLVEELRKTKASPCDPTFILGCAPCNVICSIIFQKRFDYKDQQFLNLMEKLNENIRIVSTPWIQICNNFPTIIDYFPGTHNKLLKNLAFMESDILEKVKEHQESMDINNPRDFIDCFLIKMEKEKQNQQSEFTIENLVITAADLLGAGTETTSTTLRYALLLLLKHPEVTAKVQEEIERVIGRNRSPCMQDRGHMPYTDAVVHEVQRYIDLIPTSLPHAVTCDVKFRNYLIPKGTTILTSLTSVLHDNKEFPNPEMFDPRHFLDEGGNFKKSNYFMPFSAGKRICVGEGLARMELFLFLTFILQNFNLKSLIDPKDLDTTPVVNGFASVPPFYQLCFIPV

Cytochrome P450 2B6 = target: T4, Cytochrome P450 2B6 (Homo sapiens, UniProt P20813); test: Inhibition of CYP2B6 (unknown origin) at >25 uM; format: ADME
T4 sequence (P20813 whole entry): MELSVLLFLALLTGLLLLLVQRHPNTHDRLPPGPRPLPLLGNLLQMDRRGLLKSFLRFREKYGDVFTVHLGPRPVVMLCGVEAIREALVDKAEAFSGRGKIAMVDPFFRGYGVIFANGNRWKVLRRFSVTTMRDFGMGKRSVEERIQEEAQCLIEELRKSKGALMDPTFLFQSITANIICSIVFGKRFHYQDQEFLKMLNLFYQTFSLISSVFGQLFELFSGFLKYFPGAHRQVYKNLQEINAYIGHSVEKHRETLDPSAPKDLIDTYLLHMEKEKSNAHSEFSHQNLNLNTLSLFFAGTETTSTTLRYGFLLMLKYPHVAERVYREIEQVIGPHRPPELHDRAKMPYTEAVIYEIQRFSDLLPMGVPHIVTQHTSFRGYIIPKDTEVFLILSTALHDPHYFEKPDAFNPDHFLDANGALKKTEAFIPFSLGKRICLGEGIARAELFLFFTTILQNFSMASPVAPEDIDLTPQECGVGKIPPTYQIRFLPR

Cytochrome P450 2C9 = Cytochrome P450 2C9 (Homo sapiens, UniProt P11712); test: Inhibition of CYP2C9 (unknown origin) at >25 uM; format: ADME
Sequence of Cytochrome P450 2C9 (P11712 whole entry): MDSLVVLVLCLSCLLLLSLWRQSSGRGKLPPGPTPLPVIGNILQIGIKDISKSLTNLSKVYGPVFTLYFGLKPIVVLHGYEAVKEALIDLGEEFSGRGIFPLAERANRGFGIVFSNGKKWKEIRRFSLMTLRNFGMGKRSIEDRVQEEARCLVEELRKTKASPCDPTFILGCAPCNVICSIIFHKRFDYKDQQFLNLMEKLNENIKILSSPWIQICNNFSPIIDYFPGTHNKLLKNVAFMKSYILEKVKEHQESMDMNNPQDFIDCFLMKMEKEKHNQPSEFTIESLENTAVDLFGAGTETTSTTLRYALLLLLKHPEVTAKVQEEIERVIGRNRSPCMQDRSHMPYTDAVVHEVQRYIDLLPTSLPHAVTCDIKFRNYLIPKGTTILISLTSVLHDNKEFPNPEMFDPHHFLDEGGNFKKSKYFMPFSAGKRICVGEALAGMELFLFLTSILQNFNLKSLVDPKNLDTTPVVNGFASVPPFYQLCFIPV

Cytochrome P450 2D6 = Cytochrome P450 2D6 (Homo sapiens, UniProt P10635); test: Inhibition of CYP2D6 (unknown origin) at >25 uM; format: ADME
Sequence of Cytochrome P450 2D6 (P10635 whole entry): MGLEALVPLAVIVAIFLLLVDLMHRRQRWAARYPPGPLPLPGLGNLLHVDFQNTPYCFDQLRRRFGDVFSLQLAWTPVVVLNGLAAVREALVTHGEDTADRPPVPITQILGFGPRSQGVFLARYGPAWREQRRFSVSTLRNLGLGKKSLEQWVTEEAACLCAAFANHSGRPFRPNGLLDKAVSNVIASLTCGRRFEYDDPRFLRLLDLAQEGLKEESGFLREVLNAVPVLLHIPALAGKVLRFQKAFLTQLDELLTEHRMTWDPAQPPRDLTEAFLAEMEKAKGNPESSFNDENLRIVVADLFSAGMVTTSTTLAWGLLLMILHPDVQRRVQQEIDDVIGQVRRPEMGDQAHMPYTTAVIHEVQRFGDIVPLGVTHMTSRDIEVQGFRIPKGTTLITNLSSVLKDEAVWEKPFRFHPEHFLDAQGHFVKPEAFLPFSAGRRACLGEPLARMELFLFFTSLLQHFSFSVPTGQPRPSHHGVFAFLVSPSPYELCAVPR

[21] = Solubility of compound; format: physicochemical
[22] = target: T1, Cyclin-dependent kinase 2; test: Inhibition of CDK2 in human COV318 cells incubated for overnight in presence of phospho-Rb by HTRF assay; format: cell-based
[23] = target: Cyclin-dependent kinase 1 (Homo sapiens, UniProt P06493); test: Inhibition of CDK1 in human OVCAR3 cells incubated for 30 mins in presence of pNPM T199 by western blot analysis; format: cell-based, OVCAR-3
Sequence of Cyclin-dependent kinase 1 (P06493 whole entry): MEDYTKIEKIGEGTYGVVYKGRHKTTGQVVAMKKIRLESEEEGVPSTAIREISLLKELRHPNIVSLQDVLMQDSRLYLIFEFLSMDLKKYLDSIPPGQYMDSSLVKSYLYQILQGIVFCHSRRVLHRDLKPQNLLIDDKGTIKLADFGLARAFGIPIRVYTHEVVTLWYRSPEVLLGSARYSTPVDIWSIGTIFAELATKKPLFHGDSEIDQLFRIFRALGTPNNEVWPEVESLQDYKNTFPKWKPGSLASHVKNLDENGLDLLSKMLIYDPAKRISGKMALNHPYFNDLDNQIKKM

Homo sapiens [24] = species: Homo sapiens; test: Selectivity ratio of IC50 for inhibition of CDK1 in human OVCAR3 cells to IC50 for inhibition of CDK2 in human COV318 cells; format: cell-based
Homo sapiens [25] = species: Homo sapiens; test: Selectivity ratio of IC50 for inhibition of CDK1/cyclin B (unknown origin) to IC50 for inhibition recombinant human N-terminal GST-tagged full-length CDK2/Flag-tagged cyclinE1 expressed in baculovirus expression system

- IC50 [1]: 2 nM
- Ratio IC50 (Homo sapiens [2]): 110
- Ratio IC50 (Homo sapiens [3]): 35
- IC50 [4]: 316 nM
- predicted hepatic clearance at 1 µM [5]: 16.7 mL/min/kg
- Cmax [6]: 562 nM
- Cmax [7]: 56 nM
- AUC at 24 h [8]: 1.13 µM·h
- AUC at 24 h [9]: 0.388 µM·h
- bioavailability [10]: 59%
- bioavailability [11]: 12%
- QH [12]: 96%
- QH [13]: 48%
- Vd [14]: 2 L/kg
- Vd [15]: 1.2 L/kg
- inhibition (INH) (Cytochrome P450 3A4): Active
- Ratio IC50 (Homo sapiens [16]): 110
- Ratio IC50 (Homo sapiens [17]): 660
- Ratio IC50 (Homo sapiens [18]): 1100
- Ratio IC50 (Homo sapiens [19]): 2500
- Ratio IC50 (Homo sapiens [20]): 35
- inhibition (INH) (Cytochrome P450 1A2): Active
- inhibition (INH) (Cytochrome P450 2C8): Active
- inhibition (INH) (Cytochrome P450 2C19): Active
- inhibition (INH) (Cytochrome P450 2B6): Active
- inhibition (INH) (Cytochrome P450 2C9): Active
- inhibition (INH) (Cytochrome P450 2D6): Active
- solubility [21]: > 400 µg/mL
SMILES: Cn1cc(S(=O)(=O)N2CCC(Nc3ncc4c(n3)N([C@@H]3CCC[C@@H](O)C3)C(=O)C43CC3)CC2)cn1
- inhibition at 24 h, 10 µM (hERG (KCNH2)): 7.2%

- IC50 [1]: 4 nM
- IC50 [22]: 4.9 nM
- IC50 [23]: 1200 nM
- Ratio IC50 (Homo sapiens [25]): 250
- Ratio IC50 (Homo sapiens [2]): 5
- Ratio IC50 (Homo sapiens [3]): 7
- IC50 [4]: 7600 nM
- predicted hepatic clearance at 1 µM [5]: 13.3 mL/min/kg
SMILES: NS(=O)(=O)c1ccc(Nc2ncc3c(n2)N(C2CCCC2)C(=O)C32CC2)cc1
- Ratio IC50 (Homo sapiens [24]): 245
